Article PMC3389674, “Comparison of Soluble Guanylate Cyclase Stimulators and Activators in Models of Cardiovascular Disease Associated with Oxidative Stress” (Frontiers in Pharmacology, 2012)
Where two headings read alike, the source gives them in different places.

Columns and labels:
WKY rat isolated aorta = experiment: vasodilation of phenylephrine-contracted WKY rat isolated aorta with and without ODQ
Description: Male Wistar Kyoto (WKY; Charles River Laboratories, Inc., Raleigh, NC, USA) were anesthetized with inhaled isoflurane (5% in O2) and euthanized by exsanguination. Thoracic aorta was isolated, cleaned of adherent tissue, cut into 3 mm rings, and suspended in 10 mL organ baths containing Krebs–Henseleit buffer (KHB) of the following composition (mM): NaCl, 112.0; KCl, 4.7; KH2PO4, 1.2; MgSO4, 1.2; CaCl2, 2.5; NaHCO3, 25.0; glucose, 11.0. KHB was maintained at 37°C and aerated with 95%O2:5%CO2 (pH 7.4). Changes in isometric force were measured under 1g optimal resting tension using MLT0201/D force-displacement transducers (Letica, Barcelona, Spain) and recorded digitally (Chart 5.0 software, ADInstruments, Colorado Springs, CO, USA). After a 1 h equilibration period, each tissue was contracted to equilibrium with 60 mM KCl, washed with KHB and allowed to relax to the resting tension. The 60 mM KCl contraction was repeated and subsequent contractile responses were normalized to this second KCl response. Each tissue was then contracted to equilibration with 1 μM phenylephrine, washed with KHB and allowed to relax to the resting tension. In order to further investigate the mechanism by which BAY 60-4552 and GSK2181236A were modulating sGC function, the vasodilatory effects of both compounds were assessed in the presence and absence of ODQ, a heme-site inhibitor of sGC. Following a 20 min pre-treatment with DMSO vehicle (0.1% final concentration, v/v) or ODQ (10 μM), aortae were contracted with 0.3 μM phenylephrine (an approximate EC80 concentration). Once the contractile response to phenylephrine reached a plateau (∼10 min), contractile tone was reversed by adding cumulative concentrations of BAY 60-4552 or GSK2181236A to the tissue baths at log increments (0.1 nM to 10 μM).

SHR-SP isolated aorta [1] = experiment: vasoactivity of SHR-SP isolated aorta (ND, HSFD and after chronic treatment); set-up: species or system rat
Description: (§1) In separate studies, endothelial function was assessed following chronic (7 week) BAY 60-4552 or GSK2181236A treatment in SHR-SP on HSFD. SHR-SP fed either normal or HSFD served as controls. Rats were anesthetized and thoracic aorta were isolated and treated with KCl and phenylephrine as described above. Cumulative concentration-response curves to phenylephrine were obtained by adding 0.5 log unit increments (1 nM to 3 μM). Following several washes with KHB, each vessel was contracted to equilibrium with 0.3 μM phenylephrine and tone was reversed by adding cumulative amounts of carbachol at 0.5 log unit intervals (10 nM to 30 μM). Following several KHB washes, the tissues were again contracted to equilibrium with 0.3 μM phenylephrine and tone was reversed by adding cumulative amounts of SNP at 0.5 log unit intervals (0.1 nM to 3 μM). In separate tissues from both the normal and HSFD SHR-SP control groups, the direct vasodilatory effects of BAY 60-4552 and GSK2181236A were investigated. Contractile tone induced by 0.3 μM phenylephrine was reversed by adding cumulative concentrations of BAY 60-4552 or GSK2181236A to the tissue baths at log increments (0.1 nM to 10 μM).

SHR-SP isolated aorta [2] = experiment: direct vasodilatory effects in aorta isolated from ND and HSFD SHR-SP; set-up: species or system rat; settings: for EC50: read-out: EC50, direct vasodilation
Description: as §1

[3] = HSFD + 0.3 mg/kg chronic treatment
[4] = HSFD + 3 mg/kg chronic treatment
[5] = HSFD + 0.1 mg/kg chronic treatment
[6] = HSFD + 1 mg/kg chronic treatment

## COC(=O)Nc1c(N)nc(-c2nn(Cc3ccccc3F)c3ncccc23)nc1N [BAY 60-4552]
WKY rat isolated aorta; 0.1 μM compound, ODQ 10 μM
  reduction of vasodilatory response by ODQ: 48%
WKY rat isolated aorta; 1 μM compound, ODQ 10 μM
  reduction of vasodilatory response by ODQ: 30%
SHR-SP isolated aorta [1]; [3]
  Carbachol Emax in aorta of chronically treated rats: 54 ± 6 % reversal of PE tone
  Phenylephrine Emax in aorta of chronically treated rats: 88 ± 6 % KCl
  Sodium nitroprusside Emax in aorta of chronically treated rats: 98 ± 5 % reversal of PE tone
SHR-SP isolated aorta [1]; [4]
  Carbachol Emax in aorta of chronically treated rats: 67 ± 6 % reversal of PE tone
  Phenylephrine Emax in aorta of chronically treated rats: 89 ± 7 % KCl
  Sodium nitroprusside Emax in aorta of chronically treated rats: 112 ± 3 % reversal of PE tone
SHR-SP isolated aorta [2]; aorta from HSFD SHR-SP
  Emax, direct vasodilation: 111 ± 2 % vasodilation
  EC50: 54 ± 14 nM
SHR-SP isolated aorta [2]; aorta from ND SHR-SP
  Emax, direct vasodilation: 110 ± 2 % vasodilation
  EC50: 75 ± 16 nM

## Cc1cc(-c2ccc(OC(F)(F)F)cc2)ccc1COc1ccccc1-c1cccc(-n2ncc(C(=O)O)c2C(F)(F)F)n1 [GSK2181236A, 1-(6-{2-[({3-methyl-4′-[(trifluoromethyl)oxy]-4-biphenylyl}methyl)oxy]phenyl}-2-pyridinyl)-5-(trifluoromethyl)-1H-pyrazole-4-carboxylic acid]
WKY rat isolated aorta; 0.1 μM compound, ODQ 10 μM
  increase of vasodilatory response by ODQ: 41%
WKY rat isolated aorta; 1 μM compound, ODQ 10 μM
  increase of vasodilatory response by ODQ: 36%
WKY rat isolated aorta; 10 μM compound
  increase of vasodilatory response by ODQ: 21%
SHR-SP isolated aorta [1]; [5]
  Carbachol Emax in aorta of chronically treated rats: 48 ± 14 % reversal of PE tone
  Phenylephrine Emax in aorta of chronically treated rats: 93 ± 8 % KCl
  Sodium nitroprusside Emax in aorta of chronically treated rats: 111 ± 3 % reversal of PE tone
SHR-SP isolated aorta [1]; [6]
  Carbachol Emax in aorta of chronically treated rats: 59 ± 4 % reversal of PE tone
  Phenylephrine Emax in aorta of chronically treated rats: 91 ± 8 % KCl
  Sodium nitroprusside Emax in aorta of chronically treated rats: 100 ± 2 % reversal of PE tone
SHR-SP isolated aorta [2]; Rattus norvegicus, aorta from HSFD SHR-SP
  EC50: 321 ± 168 nM
SHR-SP isolated aorta [2]; Rattus norvegicus, aorta from ND SHR-SP
  EC50: 270 ± 70 nM
SHR-SP isolated aorta [2]; aorta from HSFD SHR-SP
  Emax, direct vasodilation: 110 ± 7 % vasodilation
SHR-SP isolated aorta [2]; aorta from ND SHR-SP
  Emax, direct vasodilation: 110 ± 3 % vasodilation
